# Laboratory results: patent US12310975B2, “Modulators of BCL6 proteolysis and associated methods of use” (Arvinas Operations, Inc., priority 2019, dated 2025)
# Columns and labels:
# [1] = molecular target: T1, BCL6 (Homo sapiens (Human), UniProt P41182); assay: BCL6 TR-FRET assay (BCL6-Avitag-Biotin / BCoR-Cy5 peptide); format: binding; conditions: for IC50: read-out: IC50
# Procedure, shortened: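 TR-FRET displacement assay: biotinylated His-SUMO-BCL6-Avitag (2 nM) pre-incubated 30 min at room temperature with compound (12-point 3-fold titration), then BCoR-Cy5 peptide (100 nM) and Eu-streptavidin (2 nM) added. Buffer: 50 mM HEPES pH 7.5, 125 mM NaCl, 0.01% Triton X, glutathione or DTT, 0.03% BSA. Read after 2 h.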
# [2] = molecular target: T1, BCL6; assay: Immunofluorescence high content imaging of BCL6 degradation in T47D cells; format: cell-based; conditions: for Dmax: T47D
# Procedure, shortened: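 T47D cells were treated 3 days at 37 °C with an 11-point 3-fold dilution series (top 0.1 or 1 μM), then fixed, permeabilized and immunostained for BCL6 with Alexa-488 secondary, CellMask and Hoechst. BCL6 signal was imaged at 10×, 4 fields/well, with top-hat smoothing.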
SMILES,EC50 [1] [nM],IC50 [2] [nM],Dmax [2] [%],IC50 [1] [nM]
"CNC(=O)COc1cc2cc(Nc3nc(N4CCN(CC5CCN(c6ccc(C(=O)NC7CCC(=O)NC7=O)nc6)CC5)CC4)ncc3Cl)ccc2n(C)c1=O (stereo not shown) [compound 232, 5-(4-((4-(5-chloro-4-((1-methyl-3-(2-(methylamino)-2-oxoethoxy)-2-oxo-1,2-dihydroquinolin-6-yl)amino)pyrimidin-2-yl)piperazin-1-yl)methyl)piperidin-1-yl)-N-(2,6-dioxopiperidin-3-yl)picolinamide]",> 100,10 to 50,< 50,–
"CNC(=O)COc1cc2cc(Nc3nc(N4CCC5(CCN(CC6CCN(c7cccc8c7C(=O)N(C7CCC(=O)NC7=O)C8=O)CC6)CC5)CC4)ncc3Cl)ccc2n(C(C)C)c1=O (stereo not shown) [compound 533, 2-{[6-({5-chloro-2-[9-({1-[2-(2,6-dioxopiperidin-3-yl)-1,3-dioxo-2,3-dihydro-1H-isoindol-4-yl]piperidin-4-yl}methyl)-3,9-diazaspiro[5.5]undecan-3-yl]pyrimidin-4-yl}amino)-2-oxo-1-(propan-2-yl)-1,2-dihydroquinolin-3-yl]oxy}-N-methylacetamide]",–,–,≥ 70,< 10
"CNC(=O)COc1cc2cc(Nc3nc(N4CCN(C(C)(C)CN5CCN(c6ccc7c(c6)C(=O)N(C6CCC(=O)NC6=O)C7=O)CC5)CC4)ncc3Cl)ccc2n(C)c1=O (stereo not shown) [compound 279, 2-{[6-({5-chloro-2-[4-(1-{4-[2-(2,6-dioxopiperidin-3-yl)-1,3-dioxo-2,3-dihydro-1H-isoindol-5-yl]piperazin-1-yl}-2-methylpropan-2-yl)piperazin-1-yl]pyrimidin-4-yl}amino)-1-methyl-2-oxo-1,2-dihydroquinolin-3-yl]oxy}-N-methylacetamide]",10 to 50,10 to 50,50 to 70,–
"CNC(=O)COc1cc2cc(Nc3nc(N4CCN(C5CCN(c6cccc7c6C(=O)N(C6CCC(=O)NC6=O)C7=O)CC5)CC4)ncc3Cl)ccc2n(C)c1=O (stereo not shown) [compound 220, 2-((6-((5-chloro-2-(4-(1-(2-(2,6-dioxopiperidin-3-yl)-1,3-dioxoisoindolin-4-yl)piperidin-4-yl)piperazin-1-yl)pyrimidin-4-yl)amino)-1-methyl-2-oxo-1,2-dihydroquinolin-3-yl)oxy)-N-methylacetamide]",> 100,< 10,50 to 70,–
"CNC(=O)COc1cc2cc(Nc3nc(N4CCC5(CC4)CCN(C4CCN(c6cccc7c6C(=O)N(C6CCC(=O)NC6=O)C7=O)CC4)C5)ncc3Cl)ccc2n(C(C)C)c1=O (stereo not shown) [compound 520, 2-[(6-{[5-chloro-2-(2-{1-[2-(2,6-dioxopiperidin-3-yl)-1,3-dioxo-2,3-dihydro-1H-isoindol-4-yl]piperidin-4-yl}-2,8-diazaspiro[4.5]decan-8-yl)pyrimidin-4-yl]amino}-2-oxo-1-(propan-2-yl)-1,2-dihydroquinolin-3-yl)oxy]-N-methylacetamide]",–,–,< 50,< 10
"CNC(=O)COc1cc2cc(Nc3nc(N4CCN(CC5CCC6(CC5)CN(c5cc(F)cc7c5C(=O)N(C5CCC(=O)NC5=O)C7=O)C6)CC4)ncc3Cl)ccc2n(C(C)C)c1=O (stereo not shown) [compound 540, 2-{[6-({5-chloro-2-[4-({2-[2-(2,6-dioxopiperidin-3-yl)-6-fluoro-1,3-dioxo-2,3-dihydro-1H-isoindol-4-yl]-2-azaspiro[3.5]nonan-7-yl}methyl)piperazin-1-yl]pyrimidin-4-yl}amino)-2-oxo-1-(propan-2-yl)-1,2-dihydroquinolin-3-yl]oxy}-N-methylacetamide]",–,–,≥ 70,< 10
"CNC(=O)COc1cc2cc(Nc3nc(N4CCN(CC5CCN(c6ccc(C(=O)NC7CCC(=O)NC7=O)nn6)CC5)CC4)ncc3Cl)ccc2n(C)c1=O (stereo not shown) [compound 278, 6-[4-({4-[5-chloro-4-({1-methyl-3-[(methylcarbamoyl)methoxy]-2-oxo-1,2-dihydroquinolin-6-yl}amino)pyrimidin-2-yl]piperazin-1-yl}methyl)piperidin-1-yl]-N-(2,6-dioxopiperidin-3-yl)pyridazine-3-carboxamide]",< 10,50 to 100,< 50,–
"CNC(=O)COc1cc2cc(Nc3nc(N4CCC(O[C@H]5C[C@@H](Oc6cccc7c6C(=O)N(C6CCC(=O)NC6=O)C7=O)CN(C)C5)CC4)ncc3Cl)ccc2n(C(C)C)c1=O (stereo partly drawn) [compound 477, 2-[(6-{[5-chloro-2-(4-{[(3S,5R)-5-{[2-(2,6-dioxopiperidin-3-yl)-1,3-dioxo-2,3-dihydro-1H-isoindol-4-yl]oxy}-1-methylpiperidin-3-yl]oxy}piperidin-1-yl)pyrimidin-4-yl]amino}-2-oxo-1-(propan-2-yl)-1,2-dihydroquinolin-3-yl)oxy]-N-methylacetamide]",–,–,< 50,10 to 50
"CNC(=O)COc1cc2cc(Nc3nc(N(C)C)ncc3Cl)ccc2n(CCOc2ccc3c(c2)C(=O)N(C2CCC(=O)NC2=O)C3=O)c1=O (stereo not shown) [compound 470, 2-[(6-{[5-chloro-2-(dimethylamino)pyrimidin-4-yl]amino}-1-(2-{[2-(2,6-dioxopiperidin-3-yl)-1,3-dioxo-2,3-dihydro-1H-isoindol-5-yl]oxy}ethyl)-2-oxo-1,2-dihydroquinolin-3-yl)oxy]-N-methylacetamide]",–,–,< 50,10 to 50
"CC(=O)[C@H](C)Oc1cc2cc(Nc3nc(N4CCC(CN5CCN(c6ccc7c(c6)C(=O)N([C@@H]6CCC(=O)NC6=O)C7=O)CC5)CC4)ncc3Cl)ccc2n(C)c1=O [compound 219, 5-(4-((1-(5-chloro-4-((1-methyl-2-oxo-3-(((S)-3-oxobutan-2-yl)oxy)-1,2-dihydroquinolin-6-yl)amino)pyrimidin-2-yl)piperidin-4-yl)methyl)piperazin-1-yl)-2-((R)-2,6-dioxopiperidin-3-yl)isoindoline-1,3-dione]",> 100,50 to 100,< 50,–
"CNC(=O)COc1cc2cc(Nc3nc(N4CCN(C[C@H]5C[C@H](N6CCN(c7cccc8c7C(=O)N(C7CCC(=O)NC7=O)C8=O)CC6)C5)CC4)ncc3Cl)ccc2n(C(C)C)c1=O (stereo partly shown) [compound 537, 2-[(6-{[5-chloro-2-(4-{[(1r,3r)-3-{4-[2-(2,6-dioxopiperidin-3-yl)-1,3-dioxo-2,3-dihydro-1H-isoindol-4-yl]piperazin-1-yl}cyclobutyl]methyl}piperazin-1-yl)pyrimidin-4-yl]amino}-2-oxo-1-(propan-2-yl)-1,2-dihydroquinolin-3-yl)oxy]-N-methylacetamide]",–,–,< 50,< 10
"CNC(=O)COc1cc2cc(Nc3nc(N4CCN(CCN5CCN(c6ccc7c(c6)C(=O)N(C6CCC(=O)NC6=O)C7=O)CC5)CC4)ncc3Cl)ccc2n(C)c1=O (stereo not shown) [compound 229, 2-((6-((5-chloro-2-(4-(2-(4-(2-(2,6-dioxopiperidin-3-yl)-1,3-dioxoisoindolin-5-yl)piperazin-1-yl)ethyl)piperazin-1-yl)pyrimidin-4-yl)amino)-1-methyl-2-oxo-1,2-dihydroquinolin-3-yl)oxy)-N-methylacetamide]",10 to 50,10 to 50,50 to 70,–
"CNC(=O)COc1cc2cc(Nc3nc(N4CC5CC4CN5CC4CCN(c5ccc6c(c5)C(=O)N(C5CCC(=O)NC5=O)C6=O)CC4)ncc3Cl)ccc2n(C)c1=O (stereo not shown) [compound 195, 2-((6-((5-chloro-2-(5-((1-(2-(2,6-dioxopiperidin-3-yl)-1,3-dioxoisoindolin-5-yl)piperidin-4-yl)methyl)-2,5-diazabicyclo [2.2.1]heptan-2-yl)pyrimidin-4-yl)amino)-1-methyl-2-oxo-1,2-dihydroquinolin-3-yl)oxy)-N-methylacetamide]",< 10,10 to 50,< 50,–
"Cn1cc(-c2cc3cc(Nc4nc(N5CCC(CN6CCN(c7ccc8c(c7)C(=O)N(C7CCC(=O)NC7=O)C8=O)CC6)CC5)ncc4Cl)ccc3n(C)c2=O)cn1 (stereo not shown) [compound 205, 5-(4-((1-(5-chloro-4-((1-methyl-3-(1-methyl-1H-pyrazol-4-yl)-2-oxo-1,2-dihydroquinolin-6-yl)amino)pyrimidin-2-yl)piperidin-4-yl)methyl)piperazin-1-yl)-2-(2,6-dioxopiperidin-3-yl)isoindoline-1,3-dione]",> 100,≥ 100,–,–
"CNC(=O)COc1cc2cc(Nc3nc(N4CCC(O[C@H]5C[C@H](COc6cccc7c6C(=O)N(C6CCC(=O)NC6=O)C7=O)N(C)C5)CC4)ncc3Cl)ccc2n(C(C)C)c1=O (stereo partly drawn) [compound 471, 2-[(6-{[5-chloro-2-(4-{[(3S,5R)-5-({[2-(2,6-dioxopiperidin-3-yl)-1,3-dioxo-2,3-dihydro-1H-isoindol-4-yl]oxy}methyl)-1-methylpyrrolidin-3-yl]oxy}piperidin-1-yl)pyrimidin-4-yl]amino}-2-oxo-1-(propan-2-yl)-1,2-dihydroquinolin-3-yl)oxy]-N-methylacetamide]",–,–,< 50,10 to 50
"CC(=O)[C@@H](C)Oc1cc2cc(Nc3nc(N4CCC(CN5CCN(c6ccc7c(c6)C(=O)N([C@@H]6CCC(=O)NC6=O)C7=O)CC5)CC4)ncc3Cl)ccc2n(C)c1=O [compound 218, 5-(4-((1-(5-chloro-4-((1-methyl-2-oxo-3-(((R)-3-oxobutan-2-yl)oxy)-1,2-dihydroquinolin-6-yl)amino)pyrimidin-2-yl)piperidin-4-yl)methyl)piperazin-1-yl)-2-((R)-2,6-dioxopiperidin-3-yl)isoindoline-1,3-dione]",> 100,≥ 100,< 50,–
